# Assay results reported in patent US7897340B2, “Use of tumor susceptibilty gene 101 (TSG 101) as a prognostic and diagnostic marker” (The Board of Regents of the University of Texas System, priority 2006, dated 2011).
# “Also recorded” adds a separate entry of the source.
# Key:
# Type in all cases: cell-based, human
# TSG101 = TSG101 expression after siRNA by semiquantitative PCR and immunoblotting in SKOV-3 cells; conditions: SKOV-3, semi-quantitative PCR and immunoblotting
# From the text: (§1) A siRNA duplex specific for TSG101 (targeting TSG101 coding sequence 413-433) and a scrambled random control siRNA with matching GC content were obtained from Dharmacon. This specific TSG101 siRNA duplex (sense: CCUCCAGUCUUCUCUCGUCdTdT (SEQ ID NO: 7) and antisense: dTd[…] (SEQ ID NO: 8) have been successfully applied to suppress the expression of endogenous TSG101 in several high quality studies (Amit et al., 2004; Garrus et al., 2001; Hewitt et al., 2002; Ismaili et al., 2005). Transfection of the siRNAs was according to the manufacturer's instructions using Lipofectamine 2000 (Invitrogen).
# Total RNA was isolated from cells using Trizol reagent (Invitrogen), and concentration was determined by absorbance at 260 nm. Semiquantitative RT-PCR was carried out using 1 μg of isolated total RNA. Primers used for RT-PCR were TSG101 forward 5′-[…]-3′ (SEQ ID NO: 1), reverse 5′-[…]-3′ (SEQ ID NO:2), p21 forward 5′-[…]-3′ (SEQ ID NO: 9), reverse 5′-CCGTTTTCGACCCTGAGAG-3′ (SEQ ID NO:10).
# (§2) Cells transfected with either control or TSG101 siRNA were passaged and subsequently harvested on the appropriate days by trypsinizing cells, washing pelleted cells in PBS and then lysing cells in SDS lysis buffer. Protein concentration of cell lysates was assayed with the Bio-Rad protein assay reagent. […] Immunoblots were developed by enhanced chemiluminescence (Pierce, Rockford, Ill.).
# [1] = test system: HIF-1α transcriptional activity; assay: HIF-1α GFP reporter assay (HRE-GFP) in SKOV-3 cells
# Protocol: Cells were plated at 1×10^5 in 3.5 cm wells and grown overnight at 37° C. The following day cells were transfected with 375 ng/well of either TSG101 or control siRNA duplex using Lipofectamine 2000. Cells were then passaged at 48 hrs post-transfection and used for subsequent experiments. The HIF-1α response element (HRE)-GFP reporter (a generous gift from Mark Dewhirst) was transfected into cells 48 hrs after transfection with siRNA reagents, and subsequently plated onto microscope cover slips. On the fifth day following siRNA transfection, cells on cover slips were rinsed in PBS and fixed in 2% paraformaldehyde for 15 min. Nuclear staining was carried out with DAPI (5 ng/ml) for 5 min, after which slides were mounted and observed using a fluorescence microscope (Olympus BX51) equipped with a Hamamatsu digital camera (C4742-95).
# To test the functional consequence of TSG101 knock-down mediated down-regulation of CITED2/HIF-1 ? HIF-1 ? transcriptional activity was examined using a HIF-1-inducible fluorescent reporter. This construct was created by splicing five copies of the hypoxia regulatory element (HRE) upstream of enhanced green fluorescent protein (GFP), which provided a convenient method for monitoring HIF-1 activity levels by following GFP expression using fluorescence microscopy (Moeller et al., 2004).
# HIF-1α mRNA = HIF-1α mRNA by RT-PCR in SKOV-3 cells; conditions: SKOV-3, 3 days following siRNA transfection
# Protocol: Total RNA was isolated from cells using Trizol reagent (Invitrogen), and concentration was determined by absorbance at 260 nm. Real-Time PCR analysis was carried out using fluorescent TSG101 primers on an Applied Biosystems Prism 7000 Sequence Detection System. RT-PCR was carried out for TSG101 and HIF-1α using 1 μg of isolated total RNA under the following parameters: 94° C. 1 min, 57° C. 1 min and 72° C. 1.5 min, 35 cycles. Primers used for RT-PCR were TSG10 forward 5′-[…]-3′ (SEQ ID NO: 1), reverse 5′-TTTCCTCC TTCATCCGCCATCTC-3′ (SEQ ID NO: 2), CITED2 forward 5′-[…]-3′ (SEQ ID NO: 3), reverse 5′-[…]-3′ (SEQ ID NO: 4), HIF-1a ? forward 5′-[…]-3′ (SEQ ID NO: 5), reverse 5′-[…]-3′ (SEQ ID NO: 6).
# as §1
# SKOV-3 cells = assay: Flow cytometry cell cycle analysis (propidium iodide)
# Protocol: SKOV-3 cells transfected with either TSG101 or control siRNA were grown and harvested 4 and 6 days after transfection. 1×10^6 cells were trypsinized from 10 cm plates and transferred to FACS tubes, washed twice with PBS, and then fixed with 70% ethanol for 2 h on ice. Ethanol was removed by centrifugation and cells were rehydrated in PBS at room temperature for 5 min. Cells were centrifuged to remove PBS and stained with 1 ml of propidium iodide staining solution (0.1% Triton X-100, 0.2 mg/ml RNAase A, 0.05 mg/ml propidium iodide, prepared fresh) for 1 h at room temperature. Cellular DNA content was then determined on a Becton-Dickinson FACS-Scan apparatus.
# p21 = p21 protein by immunoblotting in SKOV-3 cells; conditions: SKOV-3, after 4 days following siRNA transfection
# Protocol: as §2
# p21 promoter = p21 promoter luciferase reporter assay in SKOV-3 cells
# From the text: To investigate the mechanism by which TSG101 silencing induced the accumulation of p21 mRNA, a plasmid construct, p21P, with a luciferase reporter gene under the transcriptional control of the p21 promoter was co-transfected into the SKOV-3 cells either with TSG101 specific or control siRNA. […] Since SKOV-3 cells are p53-null, this apparent TSG101 silencing-mediated transcriptional activation of p21 was most likely p53-independent.
# To further confirm this observation, the luciferase reporter activity was monitored using a deletion p21 reporter construct, p21PΔ1.1, which contained a 1.1 kb deletion that removed the consensus p53-responsive element from the 5′ region of the 2.4 kb p21 promoter 27. […] Since TSG101 contained a putative DNA-binding domain and could act as a general transcriptional suppressor 2, it was hypothesized that TSG101, acting as a transcriptional corepressor, suppressed the transactional activation of p21 by binding to the p21 promoter. Consequently, suppression of TSG101 by siRNA led to the transcriptional activation of p21.
substance,measurement,setting,value
"TSG101 siRNA: siRNA duplex from Dharmacon targeting TSG101 coding sequence 413-433, SEQ ID NO: 7 and 8 (chain 1 CCUCCAGUCUUCUCUCGUCTT; chain 2 TTGGAGGUCAGAAGAGAGCAG; chemistry not fully specified; one strand is listed 3' to 5')",TSG101 expression (mRNA and protein),TSG101,Suppression of TSG101 expression was confirmed
same,fluorescent signal from GFP expression (HRE-GFP),"[1]; SKOV-3, fluorescence microscopy, 4 days post-transfection as printed",significantly decreased
same,GFP protein expression (HRE-GFP),"[1]; SKOV-3, immunoblotting",significantly decreased expression of GFP
same,HIF-1α mRNA expression,HIF-1α mRNA,significantly down-regulated
same,cellular DNA content vs control siRNA,"SKOV-3 cells; SKOV-3, day 4",very similar
same,sub-G1 apoptotic cell debris,"SKOV-3 cells; SKOV-3, day 4",not seen
same,G1/G0 phase cells,"SKOV-3 cells; SKOV-3, day 6",decrease
same,number of cells in G2/M phase,"SKOV-3 cells; SKOV-3, day 6",significant increase
same,sub-G1 apoptotic cell debris,"SKOV-3 cells; SKOV-3, day 6",significant population
same,p21 protein level,p21,significantly upregulated
same,induction of p21 (luciferase reporter),"p21 promoter; SKOV-3, full-length p21 promoter construct p21P",6 fold
same,luciferase activity (p21 promoter reporter),"p21 promoter; SKOV-3, p21P construct co-transfected with siRNA, vs control siRNA",significantly increased; also recorded: potentiates p21 transcription
same,induction of p21 (luciferase reporter),"p21 promoter; SKOV-3, p53-deletion construct p21PΔ1.1",6 fold
